{"source": "paper PMC6278073", "about": "(BMC Pharmacology & Toxicology, 2018)", "key": {"[1]": {"assay": "in vivo", "protocol": "(§1) Prairie dog PK studies were performed at Centers for Disease Control and Prevention (CDC, Atlanta). […] The animals were collected in Lubbock, TX. All animals are given full physical examination by a veterinarian prior to being shipped to CDC. […] For each blood sample collection, prairie dogs were anesthetized with 5% isoflurane gas and maintained with 1–3% isoflurane during sample collection through peripheral veins. Plasma was prepared and stored at -70 °C until bioanalysis.\n(§2) Sample preparation and bioanalysis was performed at the University of Cincinnati. For extraction, 50 μl of plasma samples were transferred to glass tubes. […] The extraction solvent was separated by centrifugation. […] Collected fractions were evaporated using centrifugal evaporator.\n(§3) Analysis of extracted samples was performed by an LC-MS/MS method. […] The column was Synergi™ 4 μm Polar-RP 50 × 2.00 mm (Phenomenex) run at a flow rate of 400 μl/min with an injection volume of 5 μl (partial loop). […] The analysis was performed using a Thermo Scientific LTQ-FT™ mass spectrometer operated in positive-ion electrospray mode.\n(§4) Pharmacokinetic analysis was performed on either mean plasma concentration-time data (mouse) or on the individual plasma concentration-time data (prairie dog, guinea pig, and monkey) employing Phoenix® WinNonlin 6.4®. PK parameters such as maximum plasma concentration (Cmax), the time corresponding to Cmax (Tmax), terminal half-life (T1/2), the volume of distribution (Vd) and clearance (CL) were calculated by non-compartmental methods and presented as the arithmetic mean ± standard deviation (SD). The bioavailability (F) was estimated by dividing the mean dose-normalized area under the plasma concentration-time curve from time 0 extrapolated to infinity (AUCinf) upon oral dose by the mean dose-normalized AUCinf upon intravenous dose."}, "[2]": {"assay": "in vivo", "protocol": "PK studies in animals were approved by the Institutional Animal Care and Use Committee (IACUC) of the institution performing the study. […] Twenty-four animals were used for each route of administration and both the genders were randomly included (n = 3 mice per time point). The intravenous dose was administered via tail vein injection at an injection volume of 5 ml/kg, and the oral dose was given via gavage at a dose volume of 10 ml/kg. […] Mice were sacrificed with carbon dioxide asphyxiation following bleeds. Plasma was prepared and stored at -80 °C until bioanalysis.\nas §2, §3, §4", "remark": "listed apart in the source"}, "[3]": {"conditions": "nilotinib, cited from earlier work"}, "[4]": {"conditions": "nilotinib, 7 mg twice-daily, 20 mg once-daily, 20 mg twice-daily for 7 days, prairie dogs", "protocol": "as §1"}, "[5]": {"assay": "in vivo", "protocol": "Six Animals (3.5 kg) were procured from Charles River, three (n = 3) for each route of administration. Animals were fasted overnight before dosing and at least 1 h following dose administration. The intravenous dose was given via a saphenous vein at an injection volume of 1 ml/kg, and oral dosing was performed via gavage at a dose volume of 5 ml/kg. […] Plasma was prepared and stored at-70 °C until bioanalysis.\nas §2, §3, §4", "remark": "listed apart in the source"}, "[6]": {"conditions": "nilotinib; cited from earlier work"}, "[7]": {"conditions": "prairie dogs", "protocol": "as §1\nThe formulation used in previously reported PK studies have varied based on the animal model. […] For their intravenous PK study in dogs, Solutol® HS 15 was used instead of cremophor [13]."}, "[8]": {"tested_on": "plasma protein", "conditions": "nilotinib, all the preclinical species and humans; cited from earlier work"}, "[9]": {"assay": "in vivo", "conditions": "male, Hartley, guinea pig, iv, 10 mg/kg", "protocol": "Male Hartley guinea pigs (450–650 g) were procured from Charles River. Nine animals were used, three (n = 3) for each route of administration. The intravenous dose was given via jugular vein cannula, and the oral dose was given via gavage. […] Plasma was prepared and stored at -80 °C until bioanalysis.\nas §2, §3, §4"}, "[10]": {"conditions": "male, dog, in vivo, iv, 10 mg/kg"}, "[11]": {"conditions": "male, dog, in vivo, po, 30 mg/kg"}, "[12]": {"conditions": "both, C57BL/6, mouse, in vivo, iv, 10 mg/kg"}, "[13]": {"conditions": "both, C57BL/6, mouse, in vivo, po, 10 mg/kg"}, "[14]": {"conditions": "male, dog, in vivo, po, 10 mg/kg"}, "[15]": {"conditions": "male, dog, in vivo, po, 20 mg/kg"}, "[16]": {"conditions": "nilotinib, IV 10 mg/kg, prairie dogs, mean ± SD"}, "[17]": {"conditions": "cynomolgus monkey, in vivo, iv, 10 mg/kg"}, "[18]": {"conditions": "cynomolgus monkey, in vivo, po, 10 mg/kg"}}, "data": [{"smiles": "Cc1ccc(NC(=O)c2ccc(CN3CCN(C)CC3)cc2)cc1Nc1nccc(-c2cccnc2)n1", "note": "[imatinib]", "values": [{"measurement": "bioavailability", "setting": "[1]; male, dog, in vivo", "result": "~22", "unit": "%"}, {"measurement": "AUC(0-inf)", "setting": "[1]; [10]", "result": 12600, "unit": "ng·h/mL"}, {"measurement": "AUC(0-inf)", "setting": "[1]; [11]", "result": "8090 ± 3010", "unit": "ng·h/mL"}, {"measurement": "Cmax", "setting": "[1]; [11]", "result": "1680 ± 834", "unit": "ng/mL"}, {"measurement": "Tmax", "setting": "[1]; [11]", "result": "3 ± 1.15", "unit": "h"}, {"measurement": "AUC(0-inf)", "setting": "[2]; [12]", "result": 4520, "unit": "ng·h/mL"}, {"measurement": "AUC(0-inf)", "setting": "[2]; [13]", "result": 4850, "unit": "ng·h/mL"}, {"measurement": "Tmax", "setting": "[2]; [13]", "result": 1, "unit": "h"}, {"measurement": "Cmax", "setting": "[2]; [13]", "result": 1470, "unit": "ng/mL"}]}, {"smiles": "Cc1cn(-c2cc(NC(=O)c3ccc(C)c(Nc4nccc(-c5cccnc5)n4)c3)cc(C(F)(F)F)c2)cn1", "note": "[nilotinib]", "values": [{"measurement": "Solubility in an acidic environment", "setting": "[3]; acidic environment", "result": "soluble"}, {"measurement": "Solubility at pH above 4.5", "setting": "[3]; pH above 4.5", "result": "poorly soluble"}, {"measurement": "Water solubility", "setting": "[3]", "result": "low"}, {"measurement": "bioavailability", "setting": "[1]; male, dog, in vivo, nilotinib, oral 20 mg/kg in NMP/PEG 300 vs IV 10 mg/kg, prairie dogs", "result": "~24", "unit": "%"}, {"measurement": "AUC(0-inf)", "setting": "[1]; [10]", "result": 57600, "unit": "ng·h/mL"}, {"measurement": "MRT", "setting": "[1]; [10]", "result": "6.7 ± 2.9", "unit": "h"}, {"measurement": "Vd", "setting": "[1]; [10]", "result": "1.16 ± 0.326", "unit": "L/kg"}, {"measurement": "clearance", "setting": "[1]; [10]", "result": 3.17, "unit": "mL/min/kg"}, {"measurement": "half-life", "setting": "[1]; male, dog, in vivo, iv, 10 mg/kg, T1/2, nilotinib, IV 10 mg/kg, prairie dogs, mean ± SD", "result": 6.5, "unit": "h"}, {"measurement": "AUC(0-inf)", "setting": "[1]; [14]", "result": "9330 ± 3630", "unit": "ng·h/mL"}, {"measurement": "Cmax", "setting": "[1]; [14]", "result": "951 ± 255", "unit": "ng/mL"}, {"measurement": "Tmax", "setting": "[1]; [14]", "result": "5.6 ± 2.19", "unit": "h"}, {"measurement": "half-life", "setting": "[1]; male, dog, in vivo, po, 10 mg/kg, Apparent T1/2, nilotinib, oral 10 mg/kg in Avicel/HPMC suspension, prairie dogs, mean ± SD", "result": "3.5 ± 0.6", "unit": "h"}, {"measurement": "bioavailability", "setting": "[1]; male, dog, in vivo, po, 10 mg/kg, nilotinib, oral 10 mg/kg in Avicel/HPMC suspension vs IV 10 mg/kg, prairie dogs", "result": 16, "unit": "%"}, {"measurement": "AUC(0-inf)", "setting": "[1]; [15]", "result": 28000, "unit": "ng·h/mL"}, {"measurement": "Cmax", "setting": "[1]; [15]", "result": "1670 ± 315", "unit": "ng/mL"}, {"measurement": "Tmax", "setting": "[1]; [15]", "result": "7.2 ± 1.79", "unit": "h"}, {"measurement": "half-life", "setting": "[1]; male, dog, in vivo, po, 20 mg/kg, Apparent T1/2, nilotinib, oral 20 mg/kg in NMP/PEG 300, prairie dogs, mean ± SD", "result": 7.5, "unit": "h"}, {"measurement": "bioavailability", "setting": "[1]; male, dog, in vivo, po, 20 mg/kg, nilotinib, oral 20 mg/kg in NMP/PEG 300 vs IV 10 mg/kg, prairie dogs", "result": 24, "unit": "%"}, {"measurement": "AUC(0-inf)", "setting": "[1]; [16]", "result": "57,551 ± 15,508 ng.hr./ml"}, {"measurement": "CL", "setting": "[1]; [16]", "result": "3.17 ± 1.28", "unit": "mL/min/kg"}, {"measurement": "T1/2", "setting": "[1]; nilotinib, IV 10 mg/kg, prairie dogs, mean ± SD, 10 mg/kg", "result": "6.51 ± 2.97", "unit": "h"}, {"measurement": "Apparent T1/2", "setting": "[1]; nilotinib, oral 20 mg/kg in NMP/PEG 300, prairie dogs, mean ± SD, 20 mg/kg", "result": "7.57 ± 2.01", "unit": "h"}, {"measurement": "Deviation of predicted peak and trough levels on Days 1 and 7 from reported levels", "setting": "[4]", "result": "≤ 25", "unit": "%"}, {"measurement": "AUC(0-inf)", "setting": "[5]; [17]", "result": 16100, "unit": "ng·h/mL"}, {"measurement": "MRT", "setting": "[5]; [17]", "result": "8.9 ± 1.1", "unit": "h"}, {"measurement": "Vd", "setting": "[5]; [17]", "result": "5.74 ± 1.78", "unit": "L/kg"}, {"measurement": "clearance", "setting": "[5]; [17]", "result": 10.7, "unit": "mL/min/kg"}, {"measurement": "half-life", "setting": "[5]; cynomolgus monkey, in vivo, iv, 10 mg/kg, T1/2, nilotinib, IV 10 mg/kg, Cynomolgus monkeys, mean ± SD", "result": 7.8, "unit": "h"}, {"measurement": "AUC(0-inf)", "setting": "[5]; [18]", "result": "2100 ± 468", "unit": "ng·h/mL"}, {"measurement": "Cmax", "setting": "[5]; [18]", "result": "410 ± 46", "unit": "ng/mL"}, {"measurement": "Tmax", "setting": "[5]; [18]", "result": "1.67 ± 0.58", "unit": "h"}, {"measurement": "bioavailability", "setting": "[5]; [18]", "result": 13, "unit": "%"}, {"measurement": "half-life", "setting": "[5]; cynomolgus monkey, in vivo, po, 10 mg/kg, Apparent T1/2, nilotinib, oral 10 mg/kg in Avicel/HPMC, Cynomolgus monkeys, mean ± SD", "result": 5.2, "unit": "h"}, {"measurement": "T1/2", "setting": "[5]; nilotinib, IV 10 mg/kg, Cynomolgus monkeys, mean ± SD", "result": "7.79 ± 0.71", "unit": "h"}, {"measurement": "Apparent T1/2", "setting": "[5]; nilotinib, oral 10 mg/kg in Avicel/HPMC, Cynomolgus monkeys, mean ± SD", "result": "5.16 ± 0.52", "unit": "h"}, {"measurement": "AUC(0-inf)", "setting": "[2]; [12]", "result": 76300, "unit": "ng·h/mL"}, {"measurement": "MRT", "setting": "[2]; [12]", "result": 2.21, "unit": "h"}, {"measurement": "Vd", "setting": "[2]; [12]", "result": 0.29, "unit": "L/kg"}, {"measurement": "clearance", "setting": "[2]; [12]", "result": 2.19, "unit": "mL/min/kg"}, {"measurement": "half-life", "setting": "[2]; [12]", "result": 1.81, "unit": "h"}, {"measurement": "AUC(0-inf)", "setting": "[2]; [13]", "result": 38400, "unit": "ng·h/mL"}, {"measurement": "Tmax", "setting": "[2]; [13]", "result": 0.5, "unit": "h"}, {"measurement": "half-life", "setting": "[2]; [13]", "result": 2.94, "unit": "h"}, {"measurement": "bioavailability", "setting": "[2]; both, C57BL/6, mouse, in vivo, po, 10 mg/kg, Bioavailability, nilotinib, oral 10 mg/kg in NMP/PEG 300 vs IV 10 mg/kg, C57BL/6 mice", "result": 50, "unit": "%"}, {"measurement": "Cmax", "setting": "[2]; both, C57BL/6, mouse, in vivo, po, 10 mg/kg, nilotinib, oral 10 mg/kg in NMP/PEG 300, C57BL/6 mice", "result": 18000, "unit": "ng/mL"}, {"measurement": "Cmax", "setting": "[2]; both, C57BL/6, mouse, in vivo, po, 10 mg/kg, nilotinib, oral 10 mg/kg, C57BL/6 mice", "result": "~18000", "unit": "ng/mL"}, {"measurement": "Time to Cmax after dosing", "setting": "[2]; nilotinib, oral 10 mg/kg, C57BL/6 mice", "result": 30, "unit": "min"}, {"measurement": "Biopharmaceutics Classification System class", "setting": "[6]", "result": "class II/IV"}, {"measurement": "Permeability", "setting": "[6]", "result": "poor to moderate"}, {"measurement": "Tolerability in multi-dose studies", "setting": "[7]; nilotinib/NMP (20 mg/ml) in PEG 300 (1:10), oral, weight loss, severe diarrhea, elevated liver enzymes also in vehicle-treated animals, data not shown", "result": "not tolerated"}, {"measurement": "Tolerability in multiple dose PK studies", "setting": "[7]; oral suspension of Avicel-RC 591 and HPMC", "result": "tolerable"}, {"measurement": "Protein binding", "setting": "[8]", "result": "greater than 97%"}, {"measurement": "Vd", "setting": "[9]", "result": 37.6, "unit": "L/kg"}, {"measurement": "clearance", "setting": "[9]", "result": 198, "unit": "mL/min/kg"}, {"measurement": "half-life", "setting": "[9]", "result": 2.1, "unit": "h"}]}]}
